Laboratory results reported in article PMC3199867, “Targeting surface nucleolin with multivalent HB-19 and related Nucant pseudopeptides results in distinct inhibitory mechanisms depending on the malignant tumor cell type” (BMC Cancer, 2011).

Assays:
TIII = test: Cell growth / proliferation (viable cell number); type: cell-based, murine; details: mean of at least 2 independent experiments; for % Growth inhibition After 3 days: N6 or N7 20 μM, viable cell number vs untreated control; for % Inhibition of cell Proliferation: after 3 days of culture, vs untreated control
Experimental: (§1) Human breast (MDA-MB-231, MDA-MB-435 [37]), prostate (LNCaP, from American Type Culture Collection, ATCC, Rockville, MD), and cervical (HeLa) epithelial cancer cells were grown in DMEM-glutamax medium (Gibco Invitrogen, Cergy-Pontoise, France) containing GlutaMAX™, 4.5 g/l glucose and supplemented with 10% heat-inactivated (56°C for 30 min) fetal bovine serum (FBS; Hyclone, Thermo Fisher Scientific, Inc). Human SW480 cells are derived from a grade 3-4 colon carcinoma, while the highly metastatic counterpart SW620 is established from the lymph node of a person. Both SW480 and SW620 cells (obtained from Francis Raul, IRCAD) are highly tumorigenic in nude mice. They were cultured in D-MEM, 10% FCS. The murine melanoma TIII cell line was obtained from Armelle Prévost-Blondel. Murine T29 lymphoma cells, obtained from Philippe Kastner (CNRS, Strasbourg), have been established from Ik^L/L tumors from mice carrying a hypomorphic mutation (Ik^L/L) in the Ikaros gene encoding a transcription factor that regulates lymphocyte differentiation, and acts also as a tumor suppressor in T lymphocytes. The T29 cells were cultured in RPMI medium containing 25 mM Hepes pH 7.6, 1 mM sodium pyruvate, and 10% FCS. Human leukemia cell lines, Jurkat (acute T cell leukemia), HuT 78 (cutaneous T lymphocyte), RAJI (Burkitt lymphoma), and HL60 (promyelocytic leukemia) were cultured in RPMI-1640 medium (Gibco) containing GlutaMAX™, and supplemented with 10% heat-inactivated FBS as described before. The wild-type Chinese hamster ovary cell line (CHO K1) was purchased from American Type Culture Collection (ATCC; Rockville, MD). The CHO LRP1-null cell line (CHO-13-5-1) was kindly provided by D. Strickland [47]. They were cultured in Ham's F12K medium. All cells were cultured with 10% (v/v) heat inactivated (56°C, 30 min) fetal bovine serum (FBS) (Roche Molecular Biochemicals, Indianapolis, IN) and 50 international units/mL penicillin-streptomycin (Invitrogen). Cell death was monitored conveniently by uptake of the trypan blue dye due to plasma membrane permeability of dying and/or dead cells.

surface nucleolin = test: HIV-1 LAI entry into HeLa-CD4-LTR-LacZ cells (β-galactosidase): function of surface nucleolin; type: cell-based, human; details: 0.05-0.8 μM, β-galactosidase at 48 h post-infection
Excerpt: Surface nucleolin serves as a low affinity receptor implicated in the binding and entry of HIV-1 particles into permissive cells. Consequently, HB-19 treatment of cells prevents HIV binding to cells and thus HIV entry and infection. Here HIV-1 LAI entry was monitored in HeLa-CD4-LTR-LacZ cells containing the bacterial lacZ gene under the control of HIV-1 LTR. Virus entry and replication result in trans-activation of HIV-1 LTR by the viral Tat protein, leading to the expression of β-galactosidase. At 48 h post-infection, cell monolayers are lysed in a phosphate buffer containing Nonidet P-40 (Sigma) (1%; v ⁄ v) and assayed for β-galactosidase activity by measuring optical density at 570 nm.
Figure 2 HB-19 and related Nucant pseudopeptides antagonize surface nucleolin and trigger its down regulation. A. Multivalent pseudopeptides block the biological function of surface nucleolin for HIV entry. […] At 48 h post-infection, the β-galactosidase activity was measured in cell extracts directly to monitor HIV entry (Methods). The abscissa gives % Activity of surface nucleolin calculated from the optical density measurements at 570 nm. […] Cytoplasmic (containing cytoplasmic as well as surface nucleolin) and nuclear extracts were analyzed by immunoblotting using mAb D3 as described (Methods)(panels Surface/cytoplasmic NCL, Nuclear NCL). […]

HuT 78 = test: Cell growth (viable cell number); type: cell-based, human; details: N6 or N7 20 μM, viable cell number vs untreated control, mean of at least 2 independent experiments
Experimental: as §1

HL60 = test: Cell growth (viable cell number); type: cell-based, human; details: N6 or N7 20 μM, viable cell number vs untreated control, mean of at least 2 independent experiments
Experimental: as §1

Jurkat = test: Cell growth (viable cell number); type: cell-based, human; details: N6 or N7 20 μM, viable cell number vs untreated control, mean of at least 2 independent experiments
Experimental: as §1

LNCaP [1] = test: Cell growth (viable cell number); type: cell-based, human; details: N6 or N7 20 μM, viable cell number vs untreated control, mean of at least 2 independent experiments
Experimental: as §1

RAJI = test: Cell growth (viable cell number); type: cell-based, human; details: N6 or N7 20 μM, viable cell number vs untreated control, mean of at least 2 independent experiments
Experimental: as §1

MDA-MB 231 = test: Cell growth (viable cell number); type: cell-based, human; details: N6 or N7 20 μM, viable cell number vs untreated control, mean of at least 2 independent experiments
Experimental: as §1

MDA-MB 435 = test: Cell growth (viable cell number); type: cell-based, human; details: N6 or N7 20 μM, viable cell number vs untreated control, mean of at least 2 independent experiments
Experimental: as §1

HeLa = test: Cell growth (viable cell number); type: cell-based, human; details: N6 or N7 20 μM, viable cell number vs untreated control, mean of at least 2 independent experiments
Experimental: as §1

MDA-MB-231 = test: Cell adhesion to plastic culture flask; type: cell-based, human; details: MDA-MB-231, 10 μM, adherent cells counted after 16 hours of culture
Excerpt: (§2) A. Inhibition of Cell adhesion by N6. […] C. The effect of Nucant treatment on cell proliferation. […] The ordinates give the mean ± SD of triplicate samples. Statistical significance: **p < 0.01, ***p < 0.001.

LNCaP [2] = test: Cell adhesion to plastic culture flask; type: cell-based, human; details: 10 μM, adherent cells counted after 16 hours of culture
Excerpt: as §2

MDA-MB-435 = test: Cell adhesion to plastic culture flask; type: cell-based, human; details: MDA-MB-435, 10 μM, adherent cells counted after 16 hours of culture
Excerpt: as §2

Row | Substance | % Growth inhibition After 3 days (TIII) | inhibitory activity on HIV-1 entry, fold more active compared to the pentavalent constructs N3 and HB-19 (surface nucleolin) | % Growth inhibition After 3 days (HuT 78) | % Growth inhibition After 3 days (HL60) | % Growth inhibition After 3 days (Jurkat) | % Growth inhibition After 3 days (LNCaP [1]) | % Growth inhibition After 3 days (RAJI) | % Growth inhibition After 3 days (MDA-MB 231) | % Growth inhibition After 3 days (MDA-MB 435) | % Growth inhibition After 3 days (HeLa) | % Inhibition of cell Proliferation (TIII; 2.5 μM) | % Inhibition of cell Proliferation (TIII; 5 μM) | % Inhibition of cell Proliferation (TIII; 10 μM) | % Inhibition of cell Proliferation (TIII; 20 μM) | degree of adhesion inhibition (MDA-MB-231) | degree of adhesion inhibition (LNCaP [2]) | degree of adhesion inhibition (MDA-MB-435)
1 | Ac-KAKPGKAKPGKAKPG-NH2 [Nucant N7, Presents hexavalently the pseudo-tripeptide Lysψ(CH2N)-Pro-Arg coupled to a similar template as in HB-19] | 55% | at least 2 fold | 62% | 65% | 80% | 88% | 75% | 92% | 58% | 46% |  |  |  |  |  |  | 
2 | Ac-Lys-Aib-Gly-Lys-Aib-Gly-Lys-Aib-Gly-Lys-Aib-Gly-Lys-Aib-Gly-Lys-Aib-Gly-CONH2 [Nucant N6, Presents hexavalently the pseudo-tripeptide Lysψ(CH2N)-Pro-Arg coupled to the polypeptide template containing Aib] | 55% | at least 2 fold | 62% | 65% | 80% | 88% | 75% | 92% | 58% | 46% | 12% | 20% | 32% | 45% | 58% | 66% | 41%
